From PubChem BioAssay AID1508612

Assay: passive permeability, PAMPA, ADME assay (AID 1508612)
Details: pH 7.4, 30.0 min, 50.0 µM

Compound	Papp [×10⁻⁶ cm/s]
CCOc1ccccc1CNS(=O)(=O)c1ccc(-c2cnc(C3CC3)o2)cc1	> 1000
COc1ccc(Nc2cc(C)nc(-n3nc(C)cc3C)n2)cc1Cl	> 1000
NC(=O)C1CCN(c2nc(-c3ccc(F)cc3)cs2)CC1	198
COc1ccccc1N1CCN(CCN(C(=O)c2ccc(F)cc2)c2ccccn2)CC1	> 1000
CCCCN1CCC[C@H]1CNC(=O)c1cc(C#N)c2ccccc2c1OC	> 1000
O=C(O)c1ccncc1Nc1nn(CCN2CCC(F)(F)CC2)c2ccc(F)cc12	1.2
Cn1ccc2c(C(=O)NCC3CCC(=O)N3)nc(-c3ccccc3C#N)cc21 (stereo not drawn)	265
O=C(Nc1ccc(S(=O)(=O)Nc2nccs2)cc1)c1ccncc1	1.4
CSc1ccccc1N1CCN(CCCCCC(=O)NC2CCCc3ccccc32)CC1 (stereo not drawn)	> 1000
Cc1cccc(-n2cnc3cc(C(=O)N4CCCC(C)C4)ccc32)c1 (stereo not drawn)	> 1000
COc1ccc(-c2nc3ccccc3c(=O)n2Cc2ccco2)cc1COc1ccc(NC(C)=O)cc1	8.72
C/C=C1/CN2CC[C@@]34c5ccccc5N(C)[C@@H]3[C@@H]2C[C@@H]1[C@H]4C(=O)OC	895
O=C(NC1CCCc2c1cnn2-c1ccc(O)cc1)c1ccccn1 (stereo not drawn)	587
Cc1cccc(C)c1C(=O)Nc1cccc([S+](=O)([O-])N2CCCCCC2)c1	827
Cc1cnc(-c2ccccc2C(C)C)nc1NCC1CN(c2cccnc2)C1	> 1000
Oc1ccc(CNc2ccccc2F)c2cccnc12	34
O=C(Nc1ccccc1O)c1ccc(NC(=O)C2CC2)cc1	117
CC(=O)NCCNC(=O)c1ccc(-c2ncc3cnc(-c4cccc(F)c4)cn23)cc1	40.6
COc1cccc(C(=O)NCCSc2c(-c3ccc(F)cc3)[nH]c3ccccc23)c1OC	37
FC(F)(F)c1cccc(Sc2nc(-c3ccccc3)nnc2C(F)(F)F)c1	17
Cc1cc(C)c2nc(-c3ccccn3)cc(C(=O)Nc3ccc(S(=O)(=O)Nc4onc(C)c4C)cc3)c2c1	240
COc1ccc(NC(=O)c2c(C)c(C(C)=O)c(C)n2C)cc1S(=O)(=O)Nc1ccc(Br)cc1	< 1
O=C1CN(C(=O)CCC(=O)N2CCc3c(nc4cc(-c5ccccc5)[nH]n4c3=O)C2)c2ccccc2N1	< 1
CCn1c(C(=O)N2CCCC(C(=O)NCCc3ccc(C)cc3)C2)cc2sccc21 (stereo not drawn)	> 1000
COc1ccc(Cl)cc1C(=O)Nc1ccc(NC(=O)c2ccco2)cc1	971
Cc1cc(NS(=O)(=O)c2ccc(NC(=O)c3oc4ccccc4c3C)cc2)nc(C)n1	282
Cc1ccc(S(=O)(=O)Nc2ccccc2C(=O)Nc2nccs2)cc1	478

Compound	Papp [×10⁻⁶ cm/s]
CC(=O)Nc1ccc(CN2CCc3nc(C(C)C)nc(-c4ccc(Cl)cc4)c3CC2)cc1	> 1000
c1ccc2c(Nc3ccn[nH]3)nc(-c3ccncc3)nc2c1	880
Cc1cccc(-c2noc([C@@H]3Cc4nc[nH]c4CN3)n2)c1	343
O=C(CNC12CC3CC(CC(C3)C1)C2)c1ccc(Cl)cc1	635
O=C(O)c1ccc(N2C(=O)/C(=C/c3ccc(-c4ccc([N+](=O)[O-])cc4)o3)C=C2c2ccccc2)cc1	34.3
O=S(=O)(Nc1nccs1)c1ccc(NCc2cccc(Cl)c2O)cc1	18.4
Cc1cc(C)nc(NC(=S)N2CCN(c3ccc(Cl)cc3[N+](=O)[O-])CC2)c1	> 1000
C[C@@H]1C(=O)O[C@H]2[C@H]1CC[C@@]1(C)Cc3sc(NS(=O)(=O)Cc4ccccc4)nc3[C@@H](C)[C@H]21	> 1000
Cc1cc(-c2nnc3n2CCCCC3)c(C)n1-c1cccnc1	49.2
Fc1ccc(F)c(Nc2nc(-c3ccncc3)nc3ccccc23)c1	455
Nc1nc(N)c2cc(Sc3ccc4ccccc4c3)ccc2n1	461
Cc1ccc(CSCc2ccc(C(=O)NC3CC3)o2)cc1	833
Cc1cc(NC(=S)N2CCN(c3cccc(C(F)(F)F)c3)CC2)nc2ccccc12	31.5
c1cc(-c2cc(-c3ccncc3)c3cncn3c2)c2[nH]ccc2c1	157
O=C(Cc1c[nH]c2ncc(-c3ccc(Cl)cc3)cc12)NCc1cccnc1	> 1000
Cc1ccc(S(=O)(=O)Nc2cnccc2C(=O)Nc2nc(-c3ccc(C)c(C)c3)cs2)cc1	> 1000
Cc1ccccc1C(=O)N1CCc2cc(-c3nc(NC(=O)c4ccc5c(c4)OCO5)sc3C)ccc21	569
Cc1cccc(-n2cnc3cc(C(=O)N4CCCC(C)(C)C4)ccc32)c1	> 1000
CC1(C)CNc2cc(NC(=O)c3cccnc3NCc3ccncc3)ccc21	> 1000
O=C1Nc2ccccc2/C1=C\c1ccc(O)c(Cl)c1	608
Cc1sc2c(c1C)C(c1ccc(Cl)cc1)=N[C@@H](CC(=O)Nc1ccc(OCCOCCOCCOCCNc3cccc4c3C(=O)N(C3CCC(=O)NC3=O)C4=O)cc1)c1nnc(C)n1-2 (stereo partly drawn)	4.9
CC(C)c1ccccc1-c1nc2c(c(NCc3ccc(-c4cccnc4)cc3)n1)CNC2	478
CC(C)(C)n1cnc2cc(C(=O)N3CCCCC3)ccc21	106
COc1ccc(CN2CCc3nc(N4CCN(c5ccc(F)cc5)CC4)ncc3C2)c(OC)c1OC	> 1000
COc1ccc(-n2nc(C3CCN([S+](=O)([O-])c4cccc(C(F)(F)F)c4)CC3)[nH]c2=O)cc1	242
Cc1sc(NC(=O)Cc2ccc3c(c2)OCO3)nc1-c1ccc2c(c1)CCN2C	< 1
